{"source": "patent US20220313780A1", "about": "“METHODS AND COMPOSITIONS FOR TREATING INFLAMMATORY CONDITIONS” (THE SCRIPPS RESEARCH INSTITUTE, priority 2019, published 2022)", "key": {"caspase 1": {"tested_on": "caspase 1", "assay": "Caspase 1 activity assay in PMA-differentiated THP1 cells treated with LPS and ATP", "format": "cell-based, human", "details": "peptide at 2 nM-20 nM (tested 0-500 nM)", "procedure": "THP1-null (THP1) cells were plated at a final concentration of 1×10^6/mL in 96 well plates and incubated with PMA (0.5 μM) for 3 hours 37° C. in supplemented RPMI. Media was subsequently changed every 24 hours for 3 days. Various subsets of wells were selected and cells were treated for 60 minutes at 37° C. in serum-free RPMI with: (A) APC (4 μg/mL), TR47 (50 μM-2 nM), scrTR47 (50 μM), SFLLRN (50 μM), TFLLRN (50 μM); (B) P3R (50 μM-500 nM), P3K (50 μM); (C) APC (4 or 1 μg/mL), TR47 (8 nM), P3R (500 nM) or TR47+P3R (8 nM and 500 nM, respectively); (D) TR47 (0-128 nM) (●)±P3R (500 nM) (□); (E) P3R (0-500 nM) (●)±TR47 (1 nM) (□). Following DPBS wash, cells were incubated with LPS (1 μg/mL) for 3 hours at 37° C. in serum-free RPMI. After a DPBS wash, cells were incubated with ATP (5 mM) in the presence or absence of 10 μM YVAD (caspase 1 inhibitor) or 2.5 μM ZVAD (pan-caspase inhibitor) for 45 minutes at 37° C., prior to performing the caspase 1 activity assay following manufacturer's directions measuring luminescence (relative luminescent units, RLU). (D & E) Experimental caspase 1 activity was normalized to YVAD (caspase 1 inhibitor) luminescence units. (A-E) Data points represent mean±S.D. of at least 3 independent experiments. *P<0.05 (vs. LPS+ATP); #P<0.05 (vs. LPS+ATP & APC, TR47 or P3R); **P<0.005 (vs. LPS+ATP & TR47+500 nM P3R); n.s. not significant.\nTHP1 cells were plated at a final concentration of 1×10^6/mL in 96 well plates and incubated with PMA (0.5 μM) for 3 hours 37° C. in supplemented RPMI. Media was subsequently changed every 24 hours for 3 days. Selected wells were treated with APC (4 μg/mL), (A) 50 μM or (B) 2 μM of P3R, P3Rm, P3R 51-65, P3R 51-59, P3R 54-59 or P3R 59-65 for 1 hour, washed with DPBS, and incubated with LPS (1 μg/mL) for 3 hours at 37° C. in serum-free RPMI. Cells were washed with DPBS and incubated with ATP (5 mM) in the presence or absence of 10 μM YVAD (caspase 1 inhibitor; C1i) or 2.5 μM ZVAD (pan-caspase inhibitor; pCi) for 45 minutes at 37° C., prior to performing the caspase 1 activity assay following manufacturer's directions measuring luminescence (relative luminescent units, RLU). (C) Diagram showing the PAR3 sequence, peptide sequences and relative (anti-inflammatory) activity. These include sequences of P3R (SEQ ID NO:4), P3Rm (SEQ ID NO:8), P3R 51-65 (SEQ ID NO:9), P3R 51-59 (SEQ ID NO:10), P3R 54-59 (SEQ ID NO:54) and P3R 59-65 (SEQ ID NO:55).\nTHP1 cells were plated at a final concentration of 1×10^6/mL in 96 well plates and incubated with PMA (0.5 μM) for 3 hours 37° C. in supplemented RPMI. Media was subsequently changed every 24 hours for 3 days. Selected wells were treated with APC (4 μg/mL), TR47, in (A) 9-mer (TR47 9-mer; NPNDKYEPF (SEQ ID NO:36)) or Ac-TR47 (Acylated TR47) at either 50 μM or 10 nM or (B) 50 μM of 16-mer-TR47, 8-mer-TR47, 6-mer-TR47, TR47 N−1, TR47 N−2, TR47 N−5, TR47AQ, TR47AD, TR47AA or TR48-54 for 1 hour, washed with DPBS, and incubated with LPS (1 μg/mL) for 3 hours at 37° C. in serum-free RPMI. Cells were washed with DPBS and incubated with ATP (5 mM) in the presence or absence of 10 μM YVAD (caspase 1 inhibitor; C1i) or 2.5 μM ZVAD (pan-caspase inhibitor; pCi) for 45 minutes at 37° C., prior to performing the caspase 1 activity assay following manufacturer's directions measuring luminescence (relative luminescent units, RLU). #P<0.001 (vs. LPS+ATP), **P<0.005 (vs. LPS+ATP), * (P<0.05 vs. LPS+ATP). (C) Diagram showing the PAR1 sequence, peptide sequences and relative (anti-inflammatory) activity. These include sequences of TR47 (SEQ ID NO:7), Ac-TR47 (SEQ ID NO:56), 16-mer-TR47 (SEQ ID NO:43), 9-mer-TR47 (SEQ ID NO:36), 8-mer-TR47 (SEQ ID NO:35), 6-mer-TR47 (SEQ ID NO:33), TR47 N−1 (SEQ ID NO:47), TR47 N−2 (SEQ ID NO:51), TR47 N−5 (SEQ ID NO:48), TR47AQ (SEQ ID NO:49), TR47AD (SEQ ID NO:52), TR47AA (SEQ ID NO:50) and TR48-54 (SEQ ID NO:53). […]"}, "[1]": {"tested_on": "endothelial cells (EA.hy926)", "assay": "Transendothelial Electric Resistance (TER) assay of thrombin-induced endothelial barrier disruption", "format": "cell-based", "from_the_text": "The bottom curve in each panel of the figure is labeled as IIa for thrombin alone and represents the observed effects for thrombin (IIa) in the absence of peptide. In each panel, IIa was always present for each peptide added. The number in each panel indicates the concentration of each peptide for the respective curves. The peptide concentration of 0 is represented by the bottom curve labeled “IIa”. (A) the dose response inhibition over time of TER, expressed by Normalized Cell Index (NCI) by the PAR1 derived peptide P1(47-66) or TR47 using concentrations between 5 and 50 nM. (B) the dose response inhibition over time of NCI by the PAR3-derived peptide P3(42-65) or P3R using a 5 to 50 nM concentration range. (C) The NCI dose response inhibition over time by the short sequence PAR1-derived peptide P1(47-55) using a range of concentrations between 50 nM and 100 μM peptide. (D) The NCI dose response inhibition over time by the short sequence PAR3-derived peptide P3(42-54) using a range of concentrations between 1 μM and 200 μM peptide. (E) The NCI dose response inhibition over time by the hybrid peptide G10 in which the P1(47-55) peptide described in panel C was linked to a PAR3 peptide P3(51-65) by using 10 Gly residues. In this case the range of concentrations to study the dose response inhibition was between 3 and 50 nM peptide. An estimate for the percentage of activity for each peptide dilution in presence of thrombin can be quantified by obtaining the Area under the Curve (AUC) for each peptide dilution in comparison to the value for the AUC for thrombin alone in the absence of any peptide. These values were used to calculate the potency of each PAR peptide.\nTransendothelial Electric Resistance (TER)-based assays were used to monitor the disruption of endothelial barrier integrity caused by thrombin. The anti-inflammatory, vasculoprotective actions of different PAR peptides for protecting against thrombin-induced vascular leakage on cultured endothelial cells (EA.hy926) were followed in real time using an iCELLigence machine (ACEA Biosciences Inc, San Diego, Calif.). EA.hy926 cells at a density of 10,000/well were pipetted into the wells of gold-plated microelectrode sensor (L8, Acea Biosciences). Subsequently, the increase of electrical resistance was monitored as cells grew and spread out on the microelectrodes to obtain confluence (reaching a plateau) over the TER plates connected to the recording instrument that detected in real time the changes in TER for each well. The effects of different PAR-derived peptides at the indicated concentrations were tested for dose-response inhibition of thrombin's effects when each of the peptide dilutions was added 30 min prior to the addition of thrombin (0.25 nM final in all wells). The percentage of inhibition was proportional to the increase in TER signal over time. Cell index values, reflecting TER signals, were normalized prior to addition of thrombin following manufacturer's directions."}}}
{"sequence": "NPNDKYEPFGGGGGGGGGGFPFSALEGWTGATIT [G10, PAR1/PAR3 fusion peptide, P1(47-55) linked to P3(51-65) by 10 Glycine residues]", "values": [{"measurement": "caspase-1 activity", "setting": "caspase 1", "value": "a significant reduction in caspase-1 activity"}, {"measurement": "effect on thrombin-induced disruption of endothelial barrier", "setting": "[1]; peptide at 3 to 50 nM", "value": "very significant effects"}, {"measurement": "effectiveness relative to PAR3 peptide P3(42-54) alone", "setting": "[1]; protection of endothelial barrier integrity", "value": "> 100", "unit": "fold"}, {"measurement": "potency relative to the long PAR1 peptide TR47", "setting": "[1]; protection of endothelial barrier integrity, 6 nM G10 compared to 50 nM PAR1 peptide", "value": "~8", "unit": "fold"}, {"measurement": "EC50", "setting": "[1]; stabilization of endothelial cell barrier integrity, thrombin 0.25 nM, peptide added 30 min prior, read-out: half-maximum observed activity", "value": "~6", "unit": "nM"}]}
